Reference: paper PMC10847306, “The antibacterial activity and mechanism of a novel peptide MR-22 against multidrug-resistant Escherichia coli” (Frontiers in Cellular and Infection Microbiology, 2024)

What was measured:
[1] = system: E. coli ATCC 25922 and E19; assay: Intracellular ATP determination; assay type: cell-based, Escherichia coli; conditions: MR-22 1, 2, 4 × MIC, 1 h, 37°C; compared to the control group; dose-dependent
Method: The MR-22 solution was added to bacterial suspensions (1.0 × 10^6 CFU/mL) at different final concentrations (1, 2, 4 × MIC) incubated at 37°C for 1 h. The mixture was subsequently centrifuged and the resulting supernatants were collected. Finally, the intracellular ATP concentration was determined using an ATP Assay Kit (Beyotime, China) according to the manufacturer’s instruction.

E. coli ATCC 25922 = assay: Time-kill assay; assay type: cell-based, Escherichia coli; conditions: 2 × MIC ('1 × MIC and 2 × MIC, respectively' for E19 and ATCC 25922), 1.0×10^6 CFU/mL, 37°C, colony counts
Method: (§1) The time-kill kinetics of MR-22 on E. coli were determined following the protocol described by ([Lu et al., 2022]). The bacterial suspensions (1.0×10^6 CFU/mL) were mixed with different concentrations of MR-22, then cultured at 37°C. The final concentrations of MR-22 ranged 1, 2, 4 ×MIC. At 0, 1, 2, 4, 6, 12, and 24 h, 10 μL aliquot samples were diluted in 90 μL PBS and 5 μL aliquot of the dilutions was spread onto LB agar plates. After incubation at 37°C for 24 h, the colony counts were determined and the time-killing curve was plotted.

E. coli E19 = assay: Time-kill assay; assay type: cell-based, Escherichia coli; conditions: 1 × MIC ('1 × MIC and 2 × MIC, respectively' for E19 and ATCC 25922), 1.0×10^6 CFU/mL, 37°C, colony counts
Method: as §1

[2] = system: E. coli clinical strain E08; assay: microbe, parasite or virus in culture; conditions: clinical strain E08, 18 h
Method: (§2) The clinical strains used in this study were obtained from a tertiary healthcare facility located in Guiyang, a city situated within the Guizhou Province of China. The E. coli ATCC 25922 was obtained from the Key and Characteristic Laboratory of Modern Pathogen Biology at Guizhou Medical University in Guiyang, China. All strains were stored at –80°C in LB medium and routinely cultured at LB medium at 37°C.
(§3) The MIC were determined by a micro dilution method in Mueller-Hinton broth (MHB) ([Cuenca-Estrella et al., 2010]). The final concentration of bacterial suspension in MHB were 1.0×10^6 CFU/mL. The final concentration of MR-22 ranged 1 ~ 256 μg/mL in 96 wells plate broth at 37°C for 16~18 h. Imipenem was employed as positive control, bacterial grown without treatment as negative control and MHB as blank control. MIC determination was performed by reading the OD600 nm. Take 100 μL samples in holes that have never seen bacterial growth and place them on the LB agar board. The concentration of MR-22 with no bacterial growth was defined as the MBC.

[3] = system: E. coli clinical strain E14; assay: microbe, parasite or virus in culture; conditions: clinical strain E14, 18 h
Method: as §2, §3

[4] = system: E. coli clinical strain E10; assay: microbe, parasite or virus in culture; conditions: clinical strain E10, 18 h
Method: as §2, §3

[5] = system: E. coli clinical strain E21; assay: microbe, parasite or virus in culture; conditions: clinical strain E21, 18 h
Method: as §2, §3

[6] = system: E. coli clinical strain E06; assay: microbe, parasite or virus in culture; conditions: clinical strain E06, 18 h
Method: as §2, §3

[7] = system: E. coli clinical strain E20; assay: microbe, parasite or virus in culture; conditions: clinical strain E20, 18 h
Method: as §2, §3

[8] = system: E. coli clinical strain E07; assay: microbe, parasite or virus in culture; conditions: clinical strain E07, 18 h
Method: as §2, §3

[9] = system: E. coli clinical strain E09; assay: microbe, parasite or virus in culture; conditions: clinical strain E09, 18 h
Method: as §2, §3

[10] = system: E. coli clinical strain E01; assay: microbe, parasite or virus in culture; conditions: clinical strain E01, 18 h
Method: as §2, §3

[11] = system: E. coli clinical strain E05; assay: microbe, parasite or virus in culture; conditions: clinical strain E05, 18 h
Method: as §2, §3

[12] = system: E. coli clinical strain E17; assay: microbe, parasite or virus in culture; conditions: clinical strain E17, 18 h
Method: as §2, §3

[13] = system: E. coli clinical strain E02; assay: microbe, parasite or virus in culture; conditions: clinical strain E02, 18 h
Method: as §2, §3

[14] = system: E. coli clinical strain E11; assay: microbe, parasite or virus in culture; conditions: clinical strain E11, 18 h
Method: as §2, §3

[15] = system: E. coli clinical strain E16; assay: microbe, parasite or virus in culture; conditions: clinical strain E16, 18 h
Method: as §2, §3

[16] = system: E. coli clinical strain E18; assay: microbe, parasite or virus in culture; conditions: clinical strain E18, 18 h
Method: as §2, §3

[17] = system: E. coli clinical strain E22; assay: microbe, parasite or virus in culture; conditions: clinical strain E22, 18 h
Method: as §2, §3

[18] = system: E. coli clinical strain E19; assay: microbe, parasite or virus in culture; conditions: clinical strain E19, 18 h
Method: as §2, §3

[19] = system: E. coli clinical strain E12; assay: microbe, parasite or virus in culture; conditions: clinical strain E12, 18 h
Method: as §2, §3

[20] = system: E. coli clinical strain E13; assay: microbe, parasite or virus in culture; conditions: clinical strain E13, 18 h
Method: as §2, §3

[21] = system: E. coli clinical strain E15; assay: microbe, parasite or virus in culture; conditions: clinical strain E15, 18 h
Method: as §2, §3

[22] = system: E. coli clinical strain E04; assay: microbe, parasite or virus in culture; conditions: clinical strain E04, 18 h
Method: as §2, §3

[23] = system: E. coli clinical strain E03; assay: microbe, parasite or virus in culture; conditions: clinical strain E03, 18 h
Method: as §2, §3

H-MAKRRKKAKKKAKKAKKRRRRR-NH2 [MR-22]
intracellular ATP concentration [1]: significantly reduced | time to eliminate the bacteria (time-kill) (E. coli ATCC 25922): ≤ 2 h | time to eliminate the bacteria (time-kill) (E. coli E19): ≤ 2 h | MBC [2]: 8 µg/mL | MIC [2]: 8 µg/mL | MBC [3]: 16 µg/mL | MIC [3]: 16 µg/mL | MBC [4]: 16 µg/mL | MIC [4]: 16 µg/mL | MBC [5]: 8 µg/mL | MIC [5]: 8 µg/mL | MBC [6]: 8 µg/mL | MIC [6]: 8 µg/mL | MBC [7]: 8 µg/mL | MIC [7]: 8 µg/mL | MBC [8]: 16 µg/mL | MIC [8]: 16 µg/mL | MBC [9]: 16 µg/mL | MIC [9]: 16 µg/mL | MBC [10]: 16 µg/mL | MIC [10]: 16 µg/mL | MBC [11]: 16 µg/mL | MIC [11]: 16 µg/mL | MBC [12]: 32 µg/mL | MIC [12]: 32 µg/mL | MBC [13]: 16 µg/mL | MIC [13]: 16 µg/mL | MBC [14]: 16 µg/mL | MIC [14]: 16 µg/mL | MBC [15]: 16 µg/mL | MIC [15]: 16 µg/mL | MBC [16]: 8 µg/mL | MIC [16]: 8 µg/mL | MBC [17]: 16 µg/mL | MIC [17]: 16 µg/mL | MBC [18]: 32 µg/mL | MIC [18]: 32 µg/mL | MBC [19]: 16 µg/mL | MIC [19]: 16 µg/mL | MBC [20]: 16 µg/mL | MIC [20]: 16 µg/mL | MBC [21]: 4 µg/mL | MIC [21]: 4 µg/mL | MBC [22]: 8 µg/mL | MIC [22]: 8 µg/mL | MBC [23]: 16 µg/mL | MIC [23]: 16 µg/mL
